In patent publication US20120301551A1, “COMPOUNDS AND COMPOSITIONS FOR TREATING NEURONAL DEATH OR NEUROLOGICAL DYSFUNCTION” (Neurotech Pharmaceuticals Co., Ltd., priority 2005, published 2012):
Values joined by “and” are separate entries in the source; they are usually repeats but may differ in a detail not shown here. Equal entries are not always repeated. “Also recorded” adds a separate entry of the source.

Key:
[1] = test system: mixed cortical cell cultures containing neurons and glia; assay: Fe2+-induced free radical neurotoxicity in mixed cortical cell cultures (LDH release); type: cell-based, mouse
Protocol: (§1) Mouse cortical cell cultures (DIV 11-15) were exposed to 50 μM Fe^2+ or 10 mM BSO, alone or with inclusion of 5 mM Li^+. Neuronal death was analyzed 24 hr later by measuring levels of LDH released into the bathing medium, mean±SEM (n=9-12 culture wells per condition).
Mouse cortical cell cultures (DIV 11-15) were exposed to 30 μM Fe^2+ or 10 mM BSO, alone or in the presence of 1 μM 2-hydroxy TTBA, 10-100 μM vitamin E, or 5 mM Li^+.
(§2) For mixed neuron-glia culture, mouse cerebral cortices were removed from brains of the 11-15 day-old-fetal mice (E11-15), gently triturated and plated on 24 well plates (2×10^5 cells/plate) precoated with 100 μg/ml poly-D-lysine and 4 pg/ml laminin. Cultures were maintained at 37° C. in a humidified 5% CO2 atmosphere.
After 7-8 days in vitro (DIV 7-8), 10 μM cytosine arabinofuranoside (Ara-C) was included to halt overgrowth of glia. The drug treatment was carried on DIV 11-15 cortical cell culture.
Oxidative stress was induced by exposing mixed cortical cell cultures containing neurons and glia (DIV 11-15) to 50 μM FeCl2, a hydroxyl radical-producing transition metal via a Fenton reaction, or 10 mM DL-buthionine-[S,R]-sulfoximine (BSO), a glutathione depleting agent.

[2] = test system: mixed cortical cell cultures containing neurons and glia; assay: BSO-induced free radical neurotoxicity in mixed cortical cell cultures (LDH release); type: cell-based, mouse
Protocol: Mouse cortical cell cultures (DIV 11-15) were exposed to 10 mM BSO, alone or with indicated doses of 2-Hydroxy-TTBA or 2-Hydroxy-TPEA. Neuronal death was analyzed 24 hr later by measuring levels of LDH released into the bathing medium, mean±SEM (n=9-12 culture wells per condition). *, Significant difference from BSO alone, p<0.05 using ANOVA and Student-Newman-Keuls test.
as §1
Mouse cortical cell cultures (DIV 11-15) were exposed to 30 μM Fe^2+ or 10 mM BSO, alone or in the presence of 1 μM 2-hydroxy TTBA, 10-100 μM vitamin E, or 5 mM Li^+. Neuronal death was analyzed 24 h later by measuring LDH efflux in the bathing media (mean±SEM, n=12). *, Significant difference from the relevant control (Fe^2+ or BSO alone), p<0.05 using ANOVA and Student-Newman-Keuls test.
as §2, with “atmosphere. Plating media consist of Eagles minimal essential media (MEM, Earles salts, supplied glutamine-free) supplemented with 5% horse serum, 5% fetal bovine serum, 26.5 mM bicarbonate, 2 mM glutamine, and 21 mM glucose.” for “atmosphere.”
After 7-8 days in vitro (DIV 7-8), 10 μM cytosine arabinofuranoside (Ara-C) was included to halt overgrowth of glia. The drug treatment was carried on DIV 11-15 cortical cell culture. Overall neuronal cell injury was assessed by measuring amount of lactate dehydrogenase (LDH) released into the bathing medium 24 hr after neurotoxic insults as previously described (Koh and Choi, J Neurosci Methods 20:83-90, 1987).
Oxidative stress was induced by exposing mixed cortical cell cultures containing neurons and glia (DIV 11-15) to 50 μM FeCl2, a hydroxyl radical-producing transition metal via a Fenton reaction, or 10 mM DL-buthionine-[S,R]-sulfoximine (BSO), a glutathione depleting agent. Widespread neuronal death was observed 24 hours later. […] Administration of vitamin E prevented Fe^2+-induced free radical neurotoxicity at higher doses. This implies that 2-Hydroxy-TTBA or 2-Hydroxy-TPEA is a potent neuroprotectant against oxidative stress.

[3] = test system: cortical cell cultures containing neurons and glia; assay: cyclosporine A or calyculin A-induced neuronal cell apoptosis in cortical cell cultures; type: cell-based, mouse; settings: 20 μM cyclosporine A or 10 nM calyculin A, 24 hr; Li^+ at doses of 3-30 mM
Protocol: Mouse cortical cell cultures (DIV 10-12) were exposed to 20 μM cyclosporine A or 10 nM calculin A, alone or with inclusion of 0.3-30 mM Li. Neuronal death was analyzed 24-28 hr later by measuring levels of LDH released into the bathing medium, mean±SEM (n=9-12 culture wells per condition).
Mouse cortical cell cultures (DIV 10-12) were exposed to 20 μM cyclosporine A, alone or with 100 μM Vitamin E, 1 μM 2-hydroxy-TTBA, or 1 μM 2-hydroxy-TPEA. Neuronal death was analyzed 24 hr later by measuring levels of LDH released into the bathing medium, mean±SEM (n=9-12 culture wells per condition).
Cortical cell cultures containing neurons and glia at 10-12 days in vitro (DIV 10-12) were exposed to 20 μM cyclosporine A (CsA) or 10 nM caliculin A (cal A). Neurons underwent widespread apoptosis 24 hr later as previously reported (McDonald et al., 1996; Ko et al., 2000). […] This implies that Li^+ and the neuroprotective drugs (vitamin E, trolox, BAS, CBAS, FBAS, TBAS, PBAS, MBAS, NPAA, NPPAA, 2-Hydroxy-TTBA, and 2-Hydroxy-TPEA) selectively prevent neuronal cell apoptosis and free radical-mediated necrosis, respectively.

[4] = test system: neuron-rich cortical cell cultures; assay: serum deprivation-induced neuronal cell apoptosis; type: cell-based, mouse; settings: 24 hr; 5 mM Li^+, 100 μM zVADfmk, 1 μM 2-hydroxy TTBA
Protocol: (§3) (B) Neuron-rich cortical cell cultures (DIV 7) were deprived of serum, alone or with addition of 100 μM zVADfmk, 1 μM 2-hydroxy TTBA, or 5 mM Li^+. Neuronal death was analyzed 24 hr later by counting viable neurons excluding trypan (mean±SEM, n=4). *, Significant difference from the relevant control (serum deprivation alone), p<0.05 using ANOVA and Student-Neuman-Keuls test. (C) Western blot analysis of FADD antibody following immunoprecipitation with Fas antibody in the same samples above.
(§4) Additional experiments were performed to examine if targeting both neuronal cell necrosis and apoptosis would result in synergic neuroprotection in […] transgenic mice. […] Neuronal cell apoptosis was induced by serum deprivation in neuron-rich cortical cell cultures as reported, which was prevented by addition of 5 mM Li^+ as well as zVADfmk, a broad spectrum inhibitor of caspases (FIG. 5B). […] Additional experiments were performed to examine if Li^+ would prevent Fas signaling pathway. […] This implies that 2-Hydroxy-TTBA and Li^+ blocks oxidative neuronal cell necrosis and apoptosis, respectively.

Fas-FADD interaction = Fas-FADD interaction in serum-deprived neuron-rich cultures (immunoprecipitation, Western blot); type: cell-based, mouse; settings: deprived of serum for 8 hr
Protocol: as §3, §4

G93A transgenic mice = type: in vivo, mouse
Protocol: Animals were daily fed with 2-hydroxy TTBA (30 mg/kg/d), 0.2% lithium carbonate (200 mg/kg/d, Li), or a combination of both (2-hydroxy TTBA+Li) from 8 weeks of age in diet.
Animals were daily fed with 2-hydroxy TTBA (30 mg/kg/d), 0.2% lithium carbonate (Li), or a combination of both (2-hydroxy TTBA+Li) from 8 weeks of age in diet.
C & D: (C) Bright-field photomicrographs of cresyl violet-stained ventral horn sections from the wild type (a), or G93AA transgenic mice treated with vehicle (b), or with a combination of 2-hydroxy TTBA+Li (c) at 16 weeks of age.

[5] = test system: Fas, FADD, cleaved caspase-8 and caspase-3; assay: Fas pathway in lumbar spinal cord of G93A transgenic mice (Western blot); settings: at 12 weeks of age; 2-hydroxy-TTBA 30 mg/kg/d, Li^+ 200 mg/kg/d in the diet
Protocol: G93A transgenic mice received oral administration of 2-hydroxy-TTBA (30 mg/kg/d) in the diet from 8 weeks of age.

[6] = test system: APPswe/PS1deltaE9 double transgenic mice; assay: brain Aβ40/Aβ42 levels in APPswe/PS1deltaE9 double transgenic mice (ELISA); type: in vivo, mouse; settings: 25 mg/kg/d chemical 01 or 62.5 mg/kg/day ibuprofen for 14.5 months
Protocol: SDS-soluble/insoluble Aβ40 or Aβ42 levels were analyzed by colorimetric sandwich ELISA kit (BIOSOURCE, Camarillo, Calif.).

[7] = test system: APPswe/PS1deltaE9 double transgenic mice; assay: Morris water maze in APPswe/PS1deltaE9 double transgenic mice; type: in vivo, mouse; settings: 25 mg/kg/day chemical 01 or 62.5 mg/kg/day ibuprofen for 14.5 months (3~17.5 months)
Protocol: After administration of 14.5 months, the cognitive function was analyzed by Morris water maze test like example 10-3-1 (mean±SEM, n=3-5).
(§5) 17.5 month-old APPswe/PS1deltaE9 double transgenic mice were fed chow alone (saline only), or containing 25 mg/kg/day of chemical—01, for […] (3˜17.5 month).
The cognitive function was analyzed by Morris water maze test. Mice ware trained to perform a hidden platform task in the Morris water maze. The latency to find the platform was recorded for each mouse.

[8] = test system: APPswe/PS1deltaE9 double transgenic mice; assay: open field activity in APPswe/PS1deltaE9 double transgenic mice; type: in vivo, mouse; settings: 25 mg/kg/day chemical 01 or 62.5 mg/kg/day ibuprofen for 14.5 months (3~17.5 months)
Protocol: After administration of drug for 14.5 months, Open field activity test was performed to evaluate locomotor activity and exploratory behavior. 4×4 of scale marks were drawn in white acryl box having a size of 60 cm×60 cm×35 cm (width×length×height) to make sixteen squares. Four squares in the center became center zone and twelve squares around the center zone became peripary zone. Mice were laid into transparent acryl tube (diameter: about 3.5 inches) laid at the left corner of the acryl box for 30 seconds. After 30 seconds, acryl tube was removed to make mouse free. Experiment was once performed for each mouse for 5 minutes. The distance traveled in the open field was recorded (mean±SEM, n=3-5).
as §5
Open field activity was used to evaluate locomotor activity and exploratory behavior. The distance traveled in the open field was recorded and performance was analyzed after the testing took place.

[9] = 2-hydroxy TTBA 30 mg/kg/d, 0.2% lithium carbonate, or both, in diet from 8 weeks of age, n=13

Row | SMILES | Fe^2+-induced free radical neurotoxicity, effect in words ([1]; 50 μM Fe^2+, 24 hr, 2-Hydroxy-TTBA or 2-Hydroxy-TPEA at doses as low as 0.3 μM, vitamin E at higher doses, Li^+ 10 mM (legend 5 mM)) | Fe^2+-induced neuronal death (oxidative stress), effect in words ([1]; FIG. 5A: 30 μM Fe^2+, 24 h, 1 μM 2-hydroxy TTBA (submicromolar), 5 mM Li^+) | BSO-induced free radical neurotoxicity, effect in words ([2]; 10 mM BSO, 24 hr, 2-Hydroxy-TTBA or 2-Hydroxy-TPEA at doses as low as 0.3 μM, Li^+ 10 mM (legend 5 mM)) | BSO-induced neuronal death (oxidative stress), effect in words ([2]; FIG. 5A: 10 mM BSO, 24 h, 1 μM 2-hydroxy TTBA (submicromolar), 5 mM Li^+) | neuronal cell apoptosis, effect in words [3] | serum deprivation-induced neuronal cell apoptosis, effect in words [4] | Fas-FADD interaction, effect in words (Fas-FADD interaction) | Mortality (survival) (G93A transgenic mice; [9]) | Onset from PaGE (G93A transgenic mice; [9]) | Onset from Rotarod (G93A transgenic mice; [9]) | weight loss, % of the wild type (G93A transgenic mice; G93A mice at 18 weeks of age, oral administration in diet) [%] | extension reflex, motor strength, and coordination (G93A transgenic mice; G93A mice, drug in diet) | degeneration (loss) of ventral motor neurons in lumbar spinal cord (G93A transgenic mice; at 16 weeks of age) [%] | motor performance versus vehicle-treated control (G93A transgenic mice; from 11 weeks to 18 weeks, in the diet) | levels of Fas, FADD, cleaved caspase-8 and caspase-3 (Fas pathway) in lumbar spinal cord [5] | SDS-soluble/insoluble Aβ40 or Aβ42 levels, in words [6] | escape latency / cognitive function (Morris water maze) [7] | open field activity (distance traveled) [8]
1 | [Li+] [Li^+, lithium ion, reference compound] | did not attenuate; also recorded: does not attenuate | not attenuated and not | did not attenuate; also recorded: does not attenuate | not attenuated and not | dose-dependently attenuated | prevented; also recorded: prevents apoptosis | blocked | 137.2 days and 137.2^a ± 2.20 days | 113.3 days and 113.3^a ± 2.28 days | 114.7 days and 114.7^a ± 2.23 days | 53 | improved | 58 | better motor performance | completely blocked |  |  | 
2 | CC(C)Cc1ccc(C(C)C(=O)O)cc1 (stereo not drawn) [ibuprofen, reference compound] |  |  |  |  |  |  |  |  |  |  |  |  |  |  |  | did not reduce | did not improved cognitive function | non-significant trend
